{
  "source": "patent US8865230B2",
  "about": "“Compositions and methods for treating parasitic infections” (TyraTech, Inc., priority 2006, dated 2014)",
  "key": {"Tyramine receptor (TyrR) [1]": {"biological_target": "T1, Tyramine receptor (TyrR) (Drosophila melanogaster, UniProt P22270)", "T1 construct": "expressed in transfected cells", "T1 sequence (P22270 27-601)": "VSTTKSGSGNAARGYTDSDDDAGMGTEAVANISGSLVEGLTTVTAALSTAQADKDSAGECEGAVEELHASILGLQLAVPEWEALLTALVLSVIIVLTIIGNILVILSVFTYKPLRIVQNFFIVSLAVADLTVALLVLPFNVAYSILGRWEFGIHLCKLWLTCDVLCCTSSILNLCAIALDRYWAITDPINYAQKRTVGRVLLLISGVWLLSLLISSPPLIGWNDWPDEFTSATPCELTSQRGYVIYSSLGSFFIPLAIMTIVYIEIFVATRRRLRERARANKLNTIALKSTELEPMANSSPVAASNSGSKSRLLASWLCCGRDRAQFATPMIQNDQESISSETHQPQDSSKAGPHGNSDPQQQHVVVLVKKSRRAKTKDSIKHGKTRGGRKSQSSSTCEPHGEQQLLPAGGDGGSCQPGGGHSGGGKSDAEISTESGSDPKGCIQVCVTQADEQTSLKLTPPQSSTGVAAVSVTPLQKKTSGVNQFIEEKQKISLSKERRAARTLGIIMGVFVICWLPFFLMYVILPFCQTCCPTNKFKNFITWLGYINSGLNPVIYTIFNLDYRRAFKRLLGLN", "experiment": "Effect on intracellular Ca2+ in cells expressing TyrR (Example 14)", "assay_type": "cell-based"}, "Tyramine receptor (TyrR) [2]": {"biological_target": "T1, Tyramine receptor (TyrR)", "experiment": "Effect on intracellular cAMP in cells expressing TyrR (Example 14)", "assay_type": "cell-based"}, "Hymenolepis nana": {"test_system": "Hymenolepis nana", "experiment": "H. nana in vivo, infected mice treated orally with single test agents Rx (Example 1)", "conditions": "400 mg/kg orally daily for 5 days"}, "Tyramine receptor (TyrR) [3]": {"biological_target": "T1, Tyramine receptor (TyrR)", "experiment": "Tyramine receptor binding affinity in cells expressing TyrR (Example 14)"}},
  "data": [
    {"smiles": "C=CCc1ccc(O)c(OC)c1", "note": "[Eugenol]", "values": [
      {"measurement": "Effects Intracellular Ca2+ (Yes or No)", "setting": "Tyramine receptor (TyrR) [1]", "result": "Yes"},
      {"measurement": "Effects Intracellular cAMP (Yes or No)", "setting": "Tyramine receptor (TyrR) [2]", "result": "No"}
    ]},
    {"smiles": "Cc1ccc(C(C)C)cc1O", "note": "[Rx 4, carvacrol]", "values": [
      {"measurement": "Egg Count (X ± SD), During Treatment 1st Day", "setting": "Hymenolepis nana", "result": "5 ± 0.6"},
      {"measurement": "Egg Count (X ± SD), During Treatment 3rd Day", "setting": "Hymenolepis nana", "result": "1 ± 1.9"}
    ]},
    {"smiles": "CC(C)=CCC/C(C)=C/CO", "note": "[Rx 5, geraniol]", "values": [
      {"measurement": "Egg Count (X ± SD), During Treatment 1st Day", "setting": "Hymenolepis nana", "result": "14 ± 13.9"},
      {"measurement": "Effects Intracellular Ca2+ (Yes or No)", "setting": "Tyramine receptor (TyrR) [1]", "result": "Yes"},
      {"measurement": "Effects Intracellular cAMP (Yes or No)", "setting": "Tyramine receptor (TyrR) [2]", "result": "Yes"}
    ]},
    {"smiles": "CC12CCC(CC1)C(C)(C)O2", "note": "[Rx 6, cineol]", "values": [
      {"measurement": "Egg Count (X ± SD), During Treatment 1st Day", "setting": "Hymenolepis nana", "result": "5 ± 9.5"},
      {"measurement": "Egg Count (X ± SD), During Treatment 3rd Day", "setting": "Hymenolepis nana", "result": "1 ± 1.2"},
      {"measurement": "Effects Intracellular Ca2+ (Yes or No)", "setting": "Tyramine receptor (TyrR) [1]", "result": "Yes"},
      {"measurement": "Effects Intracellular cAMP (Yes or No)", "setting": "Tyramine receptor (TyrR) [2]", "result": "Yes"}
    ]},
    {"smiles": "CC=Cc1ccc(OC)cc1", "note": "[anethole]", "values": [
      {"measurement": "Effects Intracellular Ca2+ (Yes or No)", "setting": "Tyramine receptor (TyrR) [1]", "result": "Yes"},
      {"measurement": "Tyramine Receptor Binding Affinity (High or Low)", "setting": "Tyramine receptor (TyrR) [3]", "result": "Low"},
      {"measurement": "Effects Intracellular cAMP (Yes or No)", "setting": "Tyramine receptor (TyrR) [2]", "result": "Yes"}
    ]},
    {"smiles": "OCc1ccccc1", "note": "[benzyl alcohol]", "values": [
      {"measurement": "Effects Intracellular Ca2+ (Yes or No)", "setting": "Tyramine receptor (TyrR) [1]", "result": "No"},
      {"measurement": "Effects Intracellular cAMP (Yes or No)", "setting": "Tyramine receptor (TyrR) [2]", "result": "Yes"}
    ]},
    {"smiles": "OCC=Cc1ccccc1", "note": "[cinnamyl alcohol]", "values": [
      {"measurement": "Effects Intracellular Ca2+ (Yes or No)", "setting": "Tyramine receptor (TyrR) [1]", "result": "Yes"},
      {"measurement": "Effects Intracellular cAMP (Yes or No)", "setting": "Tyramine receptor (TyrR) [2]", "result": "No"}
    ]},
    {"smiles": "C=C(C)[C@H]1CC=C(C)CC1", "note": "[d-limonene]", "values": [
      {"measurement": "Effects Intracellular Ca2+ (Yes or No)", "setting": "Tyramine receptor (TyrR) [1]", "result": "Yes"},
      {"measurement": "Effects Intracellular cAMP (Yes or No)", "setting": "Tyramine receptor (TyrR) [2]", "result": "Yes and No"}
    ]},
    {"smiles": "C=CC(C)(O)CCC=C(C)C", "note": "(stereo not shown) [linalool]", "values": [
      {"measurement": "Effects Intracellular Ca2+ (Yes or No)", "setting": "Tyramine receptor (TyrR) [1]", "result": "Yes"},
      {"measurement": "Tyramine Receptor Binding Affinity (High or Low)", "setting": "Tyramine receptor (TyrR) [3]", "result": "high"},
      {"measurement": "Effects Intracellular cAMP (Yes or No)", "setting": "Tyramine receptor (TyrR) [2]", "result": "No"}
    ]},
    {"smiles": "Cc1ccc(C(C)C)cc1", "note": "[p-cymene]", "values": [
      {"measurement": "Effects Intracellular Ca2+ (Yes or No)", "setting": "Tyramine receptor (TyrR) [1]", "result": "Yes"},
      {"measurement": "Tyramine Receptor Binding Affinity (High or Low)", "setting": "Tyramine receptor (TyrR) [3]", "result": "low"},
      {"measurement": "Effects Intracellular cAMP (Yes or No)", "setting": "Tyramine receptor (TyrR) [2]", "result": "Yes"}
    ]},
    {"smiles": "CCC(=O)OCCc1ccccc1", "note": "[phenethyl proprionate]", "values": [
      {"measurement": "Effects Intracellular Ca2+ (Yes or No)", "setting": "Tyramine receptor (TyrR) [1]", "result": "No"},
      {"measurement": "Effects Intracellular cAMP (Yes or No)", "setting": "Tyramine receptor (TyrR) [2]", "result": "Yes"}
    ]},
    {"smiles": "CCCCCCCCCCCCOS(=O)(=O)[O-].[Na+]", "note": "[sodium lauryl sulfate]", "values": [
      {"measurement": "Effects Intracellular Ca2+ (Yes or No)", "setting": "Tyramine receptor (TyrR) [1]", "result": "No"},
      {"measurement": "Effects Intracellular cAMP (Yes or No)", "setting": "Tyramine receptor (TyrR) [2]", "result": "No"}
    ]},
    {"smiles": "CCC(C)(O)CCCC(C)C", "note": "(stereo not shown) [tetrahydrolinalool]", "values": [
      {"measurement": "Effects Intracellular Ca2+ (Yes or No)", "setting": "Tyramine receptor (TyrR) [1]", "result": "Yes"},
      {"measurement": "Effects Intracellular cAMP (Yes or No)", "setting": "Tyramine receptor (TyrR) [2]", "result": "Yes"}
    ]},
    {"smiles": "Cc1ccc(C(C)C)c(O)c1", "note": "[thymol]", "values": [
      {"measurement": "Effects Intracellular Ca2+ (Yes or No)", "setting": "Tyramine receptor (TyrR) [1]", "result": "Yes"},
      {"measurement": "Tyramine Receptor Binding Affinity (High or Low)", "setting": "Tyramine receptor (TyrR) [3]", "result": "high"},
      {"measurement": "Effects Intracellular cAMP (Yes or No)", "setting": "Tyramine receptor (TyrR) [2]", "result": "No"}
    ]},
    {"smiles": "CC1=CCC2CC1C2(C)C", "note": "(stereo not drawn) [α-pinene]", "values": [
      {"measurement": "Effects Intracellular Ca2+ (Yes or No)", "setting": "Tyramine receptor (TyrR) [1]", "result": "No"},
      {"measurement": "Effects Intracellular cAMP (Yes or No)", "setting": "Tyramine receptor (TyrR) [2]", "result": "No"}
    ]}
  ]
}
